Patent US10000791B2, “Measurement method for human pancreatic lipase activity” (ASAHI KASEI PHARMA CORPORATION, priority 2013, dated 2018)

Tested on: human pancreatic lipase
Assay: lipase activity measured in control, normal and heparin-administered samples with each reagent (1,2-dioleoyl glycerol, UV method; Liquitech Lipase Color II for verification)
Assay type: biochemical
Set-up: lipase activity relative to (1) comparative example NaDCA (Table 1): concentration or dose not given beside the values
Conditions: for lipase activity (Table 1): NaDCA pH 8.15, other bile salts pH 7.0; for lipase activity relative to (1) comparative example NaDCA (Table 1): pH 7.0

**Q.** What does the source list for `C[C@H](CCC(=O)NCCS(=O)(=O)[O-])[C@H]1CC[C@H]2[C@@H]3CC[C@@H]4C[C@H](O)CC[C@]4(C)[C@H]3C[C@H](O)[C@]12C.[Na+]` [NaTDCA, sodium taurodeoxycholate]?
**A.** lipase activity (Table 1) (Normal sample 1): 43.4 U/L; lipase activity relative to (1) comparative example NaDCA (Table 1) (Normal sample 1): 111.1%; lipase activity (Table 1) (Normal sample 2): 96.4 U/L; lipase activity relative to (1) comparative example NaDCA (Table 1) (Normal sample 2): 101.4%; lipase activity (Table 1) (Normal sample 3): 50.7 U/L; lipase activity relative to (1) comparative example NaDCA (Table 1) (Normal sample 3): 108.7%; lipase activity (Table 1) (Normal sample 4): 44.5 U/L; lipase activity relative to (1) comparative example NaDCA (Table 1) (Normal sample 4): 102.3%; lipase activity (Table 1) (Normal sample 5): 31.7 U/L; lipase activity relative to (1) comparative example NaDCA (Table 1) (Normal sample 5): 77.8%; lipase activity (Table 1) (sample Heparin 1): 30.1 U/L; lipase activity relative to (1) comparative example NaDCA (Table 1) (sample Heparin 1): 39.2%; lipase activity (Table 1) (sample Heparin 2): 44.2 U/L; lipase activity relative to (1) comparative example NaDCA (Table 1) (sample Heparin 2): 50.9%; lipase activity (Table 1) (sample Heparin 3): 37.9 U/L; lipase activity relative to (1) comparative example NaDCA (Table 1) (sample Heparin 3): 33.6%; lipase activity (Table 1) (sample Heparin 4): 28.9 U/L; lipase activity relative to (1) comparative example NaDCA (Table 1) (sample Heparin 4): 28.5%; lipase activity (Table 1) (sample Heparin 5): 30.1 U/L; lipase activity relative to (1) comparative example NaDCA (Table 1) (sample Heparin 5): 44.0%; lipase activity (Table 1) (sample Heparin 6): 30.1 U/L; lipase activity relative to (1) comparative example NaDCA (Table 1) (sample Heparin 6): 43.4%; lipase activity (Table 1) (sample Heparin 7): 50.4 U/L; lipase activity relative to (1) comparative example NaDCA (Table 1) (sample Heparin 7): 36.4%; lipase activity (Table 1) (sample Heparin 8): 54.7 U/L; lipase activity relative to (1) comparative example NaDCA (Table 1) (sample Heparin 8): 43.4%; lipase activity (Table 1) (sample Heparin 9): 82.4 U/L; lipase activity relative to (1) comparative example NaDCA (Table 1) (sample Heparin 9): 48.8%; lipase activity (Table 3) (sample Heparin 21, pH 6.2): 35.9 U/L; lipase activity (Table 3) (sample Heparin 21, pH 6.4): 37.9 U/L; lipase activity (Table 3) (sample Heparin 21, pH 6.6): 40.9 U/L; lipase activity (Table 3) (sample Heparin 21, pH 6.9): 48.6 U/L; lipase activity (Table 3) (sample Heparin 21, pH 7.2): 47.6 U/L; lipase activity (Table 3) (sample Heparin 21, pH 7.4): 44.5 U/L; lipase activity (Table 3) (sample Heparin 21, pH 7.6): 34.7 U/L; lipase activity (Table 3) (sample Heparin 22, pH 6.2): 39.7 U/L; lipase activity (Table 3) (sample Heparin 22, pH 6.4): 41.7 U/L; lipase activity (Table 3) (sample Heparin 22, pH 6.6): 45.5 U/L; lipase activity (Table 3) (sample Heparin 22, pH 6.9): 53.6 U/L; lipase activity (Table 3) (sample Heparin 22, pH 7.2): 52.6 U/L; lipase activity (Table 3) (sample Heparin 22, pH 7.4): 49.2 U/L; lipase activity (Table 3) (sample Heparin 22, pH 7.6): 38.3 U/L; lipase activity (Table 3) (sample Heparin 23, pH 6.2): 61.0 U/L; lipase activity (Table 3) (sample Heparin 23, pH 6.4): 63.0 U/L; lipase activity (Table 3) (sample Heparin 23, pH 6.6): 71.4 U/L; lipase activity (Table 3) (sample Heparin 23, pH 6.9): 81.7 U/L; lipase activity (Table 3) (sample Heparin 23, pH 7.2): 80.5 U/L; lipase activity (Table 3) (sample Heparin 23, pH 7.4): 75.8 U/L; lipase activity (Table 3) (sample Heparin 23, pH 7.6): 58.6 U/L; lipase activity (Table 3) (sample Heparin 24, pH 6.2): 44.9 U/L; lipase activity (Table 3) (sample Heparin 24, pH 6.4): 46.9 U/L; lipase activity (Table 3) (sample Heparin 24, pH 6.6): 51.8 U/L; lipase activity (Table 3) (sample Heparin 24, pH 6.9): 60.4 U/L; lipase activity (Table 3) (sample Heparin 24, pH 7.2): 59.4 U/L; lipase activity (Table 3) (sample Heparin 24, pH 7.4): 55.7 U/L; lipase activity (Table 3) (sample Heparin 24, pH 7.6): 43.2 U/L; lipase activity (Table 3) (sample Heparin 25, pH 6.2): 38.0 U/L; lipase activity (Table 3) (sample Heparin 25, pH 6.4): 40.0 U/L; lipase activity (Table 3) (sample Heparin 25, pH 6.6): 43.5 U/L; lipase activity (Table 3) (sample Heparin 25, pH 6.9): 51.4 U/L; lipase activity (Table 3) (sample Heparin 25, pH 7.2): 50.4 U/L; lipase activity (Table 3) (sample Heparin 25, pH 7.4): 47.1 U/L; lipase activity (Table 3) (sample Heparin 25, pH 7.6): 36.7 U/L; lipase activity (Table 1) (sample PRECINORM): 52.1 U/L; lipase activity (Table 3) (sample PRECINORM, pH 6.2): 46.8 U/L; lipase activity (Table 3) (sample PRECINORM, pH 6.4): 50.0 U/L; lipase activity (Table 3) (sample PRECINORM, pH 6.6): 52.6 U/L; lipase activity (Table 3) (sample PRECINORM, pH 6.9): 67.1 U/L; lipase activity relative to (1) comparative example NaDCA (Table 1) (sample PRECINORM): 102.1%; lipase activity (Table 3) (sample PRECINORM, pH 7.2): 59.5 U/L; lipase activity (Table 3) (sample PRECINORM, pH 7.4): 57.1 U/L; lipase activity (Table 3) (sample PRECINORM, pH 7.6): 52.0 U/L; lipase activity (Table 1) (sample PRECIPATH): 134.6 U/L; lipase activity (Table 3) (sample PRECIPATH, pH 6.2): 110.7 U/L; lipase activity (Table 3) (sample PRECIPATH, pH 6.4): 109.5 U/L; lipase activity (Table 3) (sample PRECIPATH, pH 6.6): 140.3 U/L; lipase activity (Table 3) (sample PRECIPATH, pH 6.9): 157.3 U/L; lipase activity relative to (1) comparative example NaDCA (Table 1) (sample PRECIPATH): 105.2%; lipase activity (Table 3) (sample PRECIPATH, pH 7.2): 159.2 U/L; lipase activity (Table 3) (sample PRECIPATH, pH 7.4): 152.7 U/L; lipase activity (Table 3) (sample PRECIPATH, pH 7.6): 110.7 U/L; lipase activity (Table 3) (sample Pool 1, pH 6.2): 42.1 U/L; lipase activity (Table 3) (sample Pool 1, pH 6.4): 44.6 U/L; lipase activity (Table 3) (sample Pool 1, pH 6.6): 45.2 U/L; lipase activity (Table 3) (sample Pool 1, pH 6.9): 53.0 U/L; lipase activity (Table 3) (sample Pool 1, pH 7.2): 52.4 U/L; lipase activity (Table 3) (sample Pool 1, pH 7.4): 45.4 U/L; lipase activity (Table 3) (sample Pool 1, pH 7.6): 39.1 U/L; lipase activity (Table 3) (sample Pool 2, pH 6.2): 22.8 U/L; lipase activity (Table 3) (sample Pool 2, pH 6.4): 24.8 U/L; lipase activity (Table 3) (sample Pool 2, pH 6.6): 23.6 U/L; lipase activity (Table 3) (sample Pool 2, pH 6.9): 28.0 U/L; lipase activity (Table 3) (sample Pool 2, pH 7.2): 28.2 U/L; lipase activity (Table 3) (sample Pool 2, pH 7.4): 27.0 U/L; lipase activity (Table 3) (sample Pool 2, pH 7.6): 18.3 U/L; lipase activity (Table 3) (sample Seraclear, pH 6.2): 23.7 U/L; lipase activity (Table 3) (sample Seraclear, pH 6.4): 25.4 U/L; lipase activity (Table 3) (sample Seraclear, pH 6.6): 28.6 U/L; lipase activity (Table 3) (sample Seraclear, pH 6.9): 31.7 U/L; lipase activity (Table 3) (sample Seraclear, pH 7.2): 33.8 U/L; lipase activity (Table 3) (sample Seraclear, pH 7.4): 31.4 U/L; lipase activity (Table 3) (sample Seraclear, pH 7.6): 20.2 U/L
